Experimental data taken from ChEMBL document CHEMBL1201862, “PubChem BioAssay data set” (2004).
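Values below derive from 48-hour exposures of cells grown in 96-well plates, with endpoints linearly interpolated between the two concentrations bracketing the appropriate inhibition level. GI50: concentration for 50% inhibition of growth.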 Calls of active or inactive are those of the source. Rule as the data show it: active = GI50 up to about 1.1 µM and inactive = higher.

Tests used:
Test in all cases: NCI tumour cell line growth inhibition, 48 h
SNB-19 = tested on: SNB-19
U-251 = tested on: U-251
SF-295 = tested on: SF-295
CCRF-CEM = tested on: CCRF-CEM
SNB-75 = tested on: SNB-75
NCI-H460 = tested on: NCI-H460
OVCAR-4 = tested on: OVCAR-4
SK-MEL-2 = tested on: SK-MEL-2
IGROV-1 = tested on: IGROV-1
OVCAR-3 = tested on: OVCAR-3
EKVX = tested on: EKVX
HT-29 = tested on: HT-29
COLO 205 = tested on: COLO 205
UACC-62 = tested on: UACC-62
K562 = tested on: K562
OVCAR-8 = tested on: OVCAR-8
OVCAR-5 = tested on: OVCAR-5
SK-MEL-5 = tested on: SK-MEL-5
SK-MEL-28 = tested on: SK-MEL-28
A549 = tested on: A549

Measured: GI50

CCCCCCCCC1=CCC(CN(C)C)C1=O (stereo not given)
inactive: SNB-19 > 55.2 µM | U-251 18.1 µM | SF-295 > 42.1 µM | CCRF-CEM 10.6 µM | SNB-75 17.7 µM | NCI-H460 16.3 µM | OVCAR-4 23.6 µM | SK-MEL-2 21.3 µM | IGROV-1 19.4 µM | OVCAR-3 18.3 µM | EKVX 23.6 µM | HT-29 19.4 µM | COLO 205 18.8 µM | UACC-62 18.1 µM | K562 9.82 µM | OVCAR-8 17.9 µM | OVCAR-5 33.3 µM | SK-MEL-5 20.1 µM | SK-MEL-28 20.1 µM | A549 > 100 µM

CCCOC(=O)CNC(=O)OC(C)(C)C
inactive: SNB-19 > 100 µM | U-251 > 100 µM | SF-295 > 100 µM | CCRF-CEM > 100 µM | SNB-75 > 100 µM | NCI-H460 > 100 µM | OVCAR-4 > 100 µM | SK-MEL-2 > 100 µM | IGROV-1 > 100 µM | OVCAR-3 > 100 µM | EKVX > 100 µM | HT-29 > 100 µM | COLO 205 > 100 µM | UACC-62 > 100 µM | K562 > 100 µM | OVCAR-8 > 100 µM | OVCAR-5 > 100 µM | SK-MEL-5 > 100 µM | SK-MEL-28 > 100 µM | A549 > 100 µM

CC(C)=CCc1c(O)ccc2ccc(=O)oc12 [OSTHENOL]
inactive: SNB-19 > 51.9 µM | U-251 21.9 µM | SF-295 45.6 µM | CCRF-CEM 33.9 µM | SNB-75 54.5 µM | NCI-H460 > 73.5 µM | OVCAR-4 37.8 µM | SK-MEL-2 45.7 µM | IGROV-1 > 68.5 µM | OVCAR-3 60.1 µM | EKVX 51.6 µM | HT-29 > 100 µM | COLO 205 > 100 µM | UACC-62 44.6 µM | K562 37.6 µM | OVCAR-8 53 µM | OVCAR-5 > 31.6 µM | SK-MEL-5 15.3 µM | SK-MEL-28 49.4 µM | A549 5.83 µM
